The results in this text go back to ChEMBL document CHEMBL1201862, “PubChem BioAssay data set” (2004).

Calls of active or inactive are those of the source.

Assay [1] deals with T1, Calpain-2 catalytic subunit (Sus scrofa, UniProt P43367).
T1 sequence (P43367 whole entry): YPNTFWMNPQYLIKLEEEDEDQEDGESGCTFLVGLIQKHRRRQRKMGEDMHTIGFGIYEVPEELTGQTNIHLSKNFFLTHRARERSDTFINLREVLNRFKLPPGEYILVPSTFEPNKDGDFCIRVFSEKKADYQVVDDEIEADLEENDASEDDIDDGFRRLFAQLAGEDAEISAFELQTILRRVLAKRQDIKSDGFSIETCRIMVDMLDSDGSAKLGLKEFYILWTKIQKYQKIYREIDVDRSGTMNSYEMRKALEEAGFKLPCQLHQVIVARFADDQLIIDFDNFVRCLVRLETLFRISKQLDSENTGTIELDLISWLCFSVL
Put plainly: pig calpain II inhibitor potency, dose response, biochemical, fluorogenic peptide substrate (AID 1420). It counts as functional.

Assay [2] is described as follows: inhibitors of clade B AD8 Env fusion, dose response, cell-based, cherry-pick (AID 652062).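 Also: luciferase signal from cell-cell fusion driven by HIV-1 clade B AD8 Env; potency is for inhibitors of fusion seen as a drop in luminescence.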 It counts as functional.
Assay [3] in a line: ZM109 Env clade C HIV-1 fusion inhibitors, dose response, HeLa effector, CEM target cells, luciferase, cherry-pick (AID 652058). Type of assay: functional, cell-based.
Assay [4] in a line: inhibitors of HIV Env-driven cell fusion, dose response, cherry-pick (AID 652057). Type of assay: functional, cell-based.
Assay [5] in a line: off-target signal loss in HeLa-CEM21 co-culture – HeLa F-luc CTL cells, cherry-picked, counter-screen for HIV-1 Env fusion inhibitor project, dose response (AID 652040).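 Also: potency for signal decrease marking cytotoxic or nonspecific inhibition.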 Type of assay: functional, cell-based.
The next assay addresses T2, Leucine aminopeptidase (Plasmodium falciparum 3D7, UniProt Q8IL11).
T2 sequence (Q8IL11 whole entry): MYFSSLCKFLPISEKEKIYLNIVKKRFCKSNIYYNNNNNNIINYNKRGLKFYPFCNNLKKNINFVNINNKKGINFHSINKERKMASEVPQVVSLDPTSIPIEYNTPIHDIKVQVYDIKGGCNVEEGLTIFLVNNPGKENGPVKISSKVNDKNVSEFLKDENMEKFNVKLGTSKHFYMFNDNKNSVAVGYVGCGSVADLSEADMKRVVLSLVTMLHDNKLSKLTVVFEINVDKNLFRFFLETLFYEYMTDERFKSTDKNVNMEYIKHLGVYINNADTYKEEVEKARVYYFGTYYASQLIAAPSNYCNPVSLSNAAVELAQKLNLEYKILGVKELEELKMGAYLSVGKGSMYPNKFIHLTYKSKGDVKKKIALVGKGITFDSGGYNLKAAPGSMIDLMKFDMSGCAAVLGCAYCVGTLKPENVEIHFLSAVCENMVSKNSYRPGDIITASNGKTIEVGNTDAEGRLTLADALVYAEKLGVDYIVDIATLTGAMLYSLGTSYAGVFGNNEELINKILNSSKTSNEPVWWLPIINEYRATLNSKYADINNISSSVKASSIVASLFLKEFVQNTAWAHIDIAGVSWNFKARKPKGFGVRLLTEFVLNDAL
As to the kind of experiment: P. falciparum M17LAP inhibitors, primary screen, biochemical, fluorogenic H-Leu-NHMec substrate, 1536-well (AID 1619). Type of assay: functional.

Assay [6] in a line: control 3'UTR Renilla luciferase suppression, dose response, counter-screen for Shn3 inhibitor project, cell-based, Clone20-Shn3RL, cherry-picked (AID 624133). It counts as functional.
Assay [7] in a line: HepG2 cell cytotoxicity, dose response, cytotoxicity control for Shn3 inhibitor project, CellTiter-Glo, cherry-picked (AID 624134). Type of assay: functional, cell-based.
Assay [8] can be described thus: Shn3 3'UTR reporter inhibitors, dose response, cell-based, Clone20 osteoblasts, firefly luciferase, cherry-picked (AID 624132).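 Also: firefly luciferase luminescence from reporter carrying the Shn3 3'UTR in osteoblasts.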 Type of assay: functional.
For assay [9], the target named is T3, Polyadenylate-binding protein 1 (Homo sapiens, UniProt P11940). As to the kind of experiment: PABP1 MLLE–PAM2 interaction inhibitors, dose response, miRNA deadenylation inhibitor project, biochemical, fluorescence polarization, Cy5-PAM2 peptide, secondary (AID 602260). The following applies: read-out: IC50_Mean. Type of assay: functional.
Assay [10] concerns the target T3, Polyadenylate-binding protein 1. Put plainly: PABP1 MLLE–PAM2 binding inhibitor potency, dose response, biochemical, fluorescence polarization, FITC-PAM2 peptide (AID 602259). It counts as functional. The following applies: read-out: IC50_Mean.
Assay [11] concerns the target Glyceraldehyde-3-phosphate dehydrogenase (Homo sapiens, UniProt P04406).
In another assay the target is Cytochrome P450 2C19 (Homo sapiens, UniProt P33261). Put plainly: Cytochrome panel assay with activity outcomes. Panel member name: p450-cyp2c19 Compounds with AC50 equal or less than 10 uM are considered active. It counts as functional. The following applies: read-out: AC50.
Another assay deals with Cytochrome P450 3A4 (Homo sapiens, UniProt P08684).
For assay [12], the target named is Induced myeloid leukemia cell differentiation protein Mcl-1 (Homo sapiens, UniProt Q07820). Type of assay: functional.
For assay [13], the target named is Eukaryotic translation initiation factor 4E (Mus musculus, UniProt P63073). Put plainly: eIF4E–eIF4G protein interaction inhibitors, dose response, biochemical, TR-FRET (AID 855).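 Also: potency for disrupting eIF4E binding to eIF4GI seen as loss of FRET.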 Type of assay: functional.
Sequence of Eukaryotic translation initiation factor 4E (P63073 whole entry): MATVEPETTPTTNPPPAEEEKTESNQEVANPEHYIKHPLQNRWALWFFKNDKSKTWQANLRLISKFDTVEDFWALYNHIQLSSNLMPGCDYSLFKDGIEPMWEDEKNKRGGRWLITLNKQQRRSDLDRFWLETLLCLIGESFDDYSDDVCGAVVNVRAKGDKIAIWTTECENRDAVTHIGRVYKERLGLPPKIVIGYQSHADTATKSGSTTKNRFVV

Sequence of Glyceraldehyde-3-phosphate dehydrogenase (P04406 whole entry): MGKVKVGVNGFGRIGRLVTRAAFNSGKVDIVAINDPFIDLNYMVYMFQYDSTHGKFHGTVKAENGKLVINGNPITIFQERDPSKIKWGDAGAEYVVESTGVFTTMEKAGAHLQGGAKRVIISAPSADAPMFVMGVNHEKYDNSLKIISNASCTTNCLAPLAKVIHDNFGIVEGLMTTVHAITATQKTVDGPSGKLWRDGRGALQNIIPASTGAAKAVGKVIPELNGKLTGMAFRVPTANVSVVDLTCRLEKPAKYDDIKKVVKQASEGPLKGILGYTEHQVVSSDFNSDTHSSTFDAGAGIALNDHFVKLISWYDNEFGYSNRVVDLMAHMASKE
T3 sequence (P11940 whole entry): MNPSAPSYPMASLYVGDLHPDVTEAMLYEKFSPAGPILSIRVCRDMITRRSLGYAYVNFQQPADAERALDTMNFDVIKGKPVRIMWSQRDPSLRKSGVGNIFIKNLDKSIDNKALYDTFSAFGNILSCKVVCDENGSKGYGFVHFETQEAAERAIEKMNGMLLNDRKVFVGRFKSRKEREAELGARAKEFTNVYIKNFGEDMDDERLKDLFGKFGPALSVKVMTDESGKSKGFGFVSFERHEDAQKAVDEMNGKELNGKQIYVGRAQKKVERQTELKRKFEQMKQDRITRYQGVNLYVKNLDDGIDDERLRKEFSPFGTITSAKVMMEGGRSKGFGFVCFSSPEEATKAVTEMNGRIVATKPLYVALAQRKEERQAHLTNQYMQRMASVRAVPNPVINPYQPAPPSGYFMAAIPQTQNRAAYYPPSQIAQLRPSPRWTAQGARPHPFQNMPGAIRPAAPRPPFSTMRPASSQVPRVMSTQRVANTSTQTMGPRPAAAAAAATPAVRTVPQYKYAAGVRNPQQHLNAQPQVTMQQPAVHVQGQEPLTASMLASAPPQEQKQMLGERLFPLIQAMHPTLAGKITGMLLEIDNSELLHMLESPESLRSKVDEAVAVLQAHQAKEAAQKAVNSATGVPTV
Sequence of Cytochrome P450 2C19 (P33261 whole entry): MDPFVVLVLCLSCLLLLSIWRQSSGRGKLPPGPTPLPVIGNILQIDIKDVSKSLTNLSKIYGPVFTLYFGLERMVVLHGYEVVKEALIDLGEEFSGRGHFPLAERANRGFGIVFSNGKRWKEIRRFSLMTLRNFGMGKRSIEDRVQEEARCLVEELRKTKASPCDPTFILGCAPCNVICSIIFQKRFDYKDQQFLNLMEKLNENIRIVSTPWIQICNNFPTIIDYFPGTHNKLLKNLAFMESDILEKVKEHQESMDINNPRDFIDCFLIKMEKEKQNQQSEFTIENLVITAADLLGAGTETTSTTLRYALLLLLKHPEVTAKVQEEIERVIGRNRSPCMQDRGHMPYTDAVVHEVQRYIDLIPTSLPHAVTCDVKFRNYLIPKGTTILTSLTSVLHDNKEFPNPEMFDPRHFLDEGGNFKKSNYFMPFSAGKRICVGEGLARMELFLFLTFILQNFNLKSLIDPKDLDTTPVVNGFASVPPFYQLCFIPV
Sequence of Cytochrome P450 3A4 (P08684 whole entry): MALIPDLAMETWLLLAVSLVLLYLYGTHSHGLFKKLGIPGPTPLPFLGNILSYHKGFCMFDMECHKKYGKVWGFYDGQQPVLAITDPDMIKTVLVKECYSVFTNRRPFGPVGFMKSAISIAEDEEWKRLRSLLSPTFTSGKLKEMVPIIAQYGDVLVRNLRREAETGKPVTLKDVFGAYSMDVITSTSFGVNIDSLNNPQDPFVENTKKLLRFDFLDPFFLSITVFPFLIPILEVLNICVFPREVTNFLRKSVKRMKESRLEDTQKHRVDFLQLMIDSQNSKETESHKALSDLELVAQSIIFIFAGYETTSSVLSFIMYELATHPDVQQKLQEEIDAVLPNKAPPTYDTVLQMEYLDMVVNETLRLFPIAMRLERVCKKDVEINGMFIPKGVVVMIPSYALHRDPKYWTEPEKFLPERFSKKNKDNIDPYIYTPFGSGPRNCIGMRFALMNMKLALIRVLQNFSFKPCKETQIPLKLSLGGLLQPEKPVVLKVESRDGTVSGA
Sequence of Induced myeloid leukemia cell differentiation protein Mcl-1 (Q07820 whole entry): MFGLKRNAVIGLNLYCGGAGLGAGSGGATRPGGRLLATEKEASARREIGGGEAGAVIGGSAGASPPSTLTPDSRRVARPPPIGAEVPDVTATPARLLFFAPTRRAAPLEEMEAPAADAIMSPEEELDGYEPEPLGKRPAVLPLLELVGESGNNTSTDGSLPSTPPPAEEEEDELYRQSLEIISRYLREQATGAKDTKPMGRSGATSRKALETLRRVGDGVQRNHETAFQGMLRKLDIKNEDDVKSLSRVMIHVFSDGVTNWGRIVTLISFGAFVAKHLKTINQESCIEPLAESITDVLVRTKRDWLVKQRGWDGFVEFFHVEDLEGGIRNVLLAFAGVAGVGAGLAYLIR

With `CCOc1ncccc1C(=O)Nc1nnc(C)s1`, the IC50 in assay [1] is listed as > 50 µM (not active).
On to `CC(C)(C)N1C(=O)[C@H]2[C@@H](c3ccc(Br)cc3)N3C(=O)N(c4ccccc4)C(=O)[C@@]3(C)[C@H]2C1=O`, for which the concentration at half-maximal activity (AC50) in assay [2] is 1.83 µM (active); in [3] it was 1.08 µM (active); in assay [4], 1.13 µM (active); in [5], 1.18 µM (active).
For the compound `O=C(c1cc([N+](=O)[O-])ccc1N1CCOCC1)N1CCCCC1`, in assay [1], the IC50 was > 50 µM (not active).
For `CC1(C(=O)NCc2ccc(Cl)c(Cl)c2)Oc2ccccc2NC1=O` (stereo not given), the IC50 in [1] is 5.76 µM (not active).
Consider `CC(C)c1c(O)nc(SCC(=O)Nc2ccc3c(c2)CCC3)[nH]c1=O`, for which the IC50 at Leucine aminopeptidase was 8.08 µM (active).
On to `COc1ccccc1NC(=O)C12CC3CC(C1)CC(c1ccc(C)cc1)(C3)C2`, for which the IC50 in assay [1] was 3.42 µM (not active).
`Cn1nc(C(F)(F)F)c2cc(NC(=O)OCc3ccc(F)cc3)sc21`: the IC50 in [1] was 6.72 µM (active).
As for `CCOC(=O)c1c(NC(=O)C2C3C=CC(CC3)C2C(=O)O)sc(C)c1CC` (stereo not given), on Leucine aminopeptidase, the IC50 was 13.2 µM (active).
Turning to `CCCN1C=CC(=C/C=C(\C#N)C(=O)OCC)C=C1`, the IC50 at Leucine aminopeptidase is 91.5 µM (active).
As to `CCC1(c2ccccc2)NC(=O)N(CC(=O)Nc2cc(S(=O)(=O)N3CCCCC3)ccc2OC(C)C)C1=O` (stereo not given), the half-maximal activity concentration (AC50) is 14.7 µM (active) in [2], 3.02 µM (active) in assay [3], 1.8 µM (active) in assay [4] and 5.57 µM (active) in assay [5].
Consider `O=C(O)C1CC=CCC1C(=O)NCCc1cccc(Cl)c1` (stereo not given), for which, at Leucine aminopeptidase, the IC50 is 11.8 µM (active).
For the compound `CC(C)C[C@H]1CN=C(N(C)C)N1CC1CCCCCC1`, the figures for the concentration at half-maximal activity (AC50) in [6], in [7] and in [8] were 9.97 µM (active), > 70 µM (inactive) and 5.03 µM (active), respectively.
For the compound `COc1cc2c(cc1[N+](=O)[O-])n(C(C)C)c(=O)n2C(C)C`, the IC50 in [1] is listed as > 50 µM (not active).
In the case of `CCN(CC(=O)Nc1ccc(OC)cc1)C(=O)CSCc1c(C)noc1C`, the IC50 in assay [9] and in assay [10] was > 66 µM (inactive) throughout.
For the compound `O=C(NCc1cccnc1)c1cnc2cc3c(cc2c1O)OCCO3`, the AC50 was 1.22 µM (active) in assay [2] and < 0.26 µM (active) in assay [5].
Take `CC1=NNC(=O)C1CCC(=O)N/N=C(\C)c1ccccc1` (stereo not given): the IC50 at Leucine aminopeptidase is 36.6 µM (active).
For `O=C1C(Cl)=C(N2CCN(C/C=C/c3ccccc3)CC2)C(=O)N1c1ccc(Cl)nc1`, the IC50 in assay [11] is > 50 µM (inconclusive).
For `CC1(C)CC2CC(C)(CN2S(=O)(=O)c2cccc(C(=O)OCC(=O)NC(N)=O)c2)C1` (stereo not given), the AC50 in assay [2] was 13.8 µM (active); in [3], 6.73 µM (active); in assay [4], 6.32 µM (active); in assay [5], 6.33 µM (active).
Take `Cc1nc2sccn2c1-c1csc(NCc2ccccc2)n1`: the half-maximal activity concentration (AC50) in [2] was 10.7 µM (active); in [3] it was 10.1 µM (active); in assay [4], 15.4 µM (active); in [5] it was 24 µM (active).
On to `Cc1cc(C)n2nc(SCC(=O)c3cc(C)n(-c4cc(C)on4)c3C)nc2n1`, for which the AC50 in assay [6] was 3.28 µM (active); in [7], > 70 µM (inactive); in assay [8], 2.46 µM (active).
For the compound `O=c1[nH]nc(Sc2ccccc2)c(=S)[nH]1`, the IC50 in [9] and in assay [10] was > 66 µM (inactive) throughout.
Take `CCC(C)NC(=O)[C@H]1N2C(=O)c3c(ccc(OC)c3OC)C2SC1(C)C` (stereo not given in full): the IC50 in assay [9] and in assay [10] was > 66 µM (inactive) each time.
For the compound `Cc1cc(Cl)ccc1OCCCC(=O)Nc1cc(S(=O)(=O)N2CCOCC2)ccc1N1CCOCC1`, the AC50 in assay [2] was 7.34 µM (active); in assay [3], 5.3 µM (active); in assay [4] it was 2.05 µM (active); in [5] it was 4.73 µM (active).
On to `CC(=O)c1cccc(S(=O)(=O)NC2CCSc3ccccc32)c1` (stereo not given), for which the IC50 in assay [9] and in [10] was > 66 µM (inactive) each time.
Regarding `Cc1cc(C(=O)CSc2nc[nH]n2)c(C)n1-c1cccc(S(=O)(=O)N2CCOCC2)c1`, the IC50 on Leucine aminopeptidase is 22.8 µM (active).
In the case of `Cc1cccc(NC(=O)NC(=S)NC(=O)c2ccccc2)c1`, the IC50 in [9] and in assay [10] was > 66 µM (inactive) each time.
With `O=C(O)CSc1cccc2c(SCC(=O)O)cccc12`, in assay [11], the IC50 is given as > 100 µM (not active).
`COc1ccc(CC(CC(=O)O)C(=O)Nc2ccc(OC)cc2)cc1` (stereo not given): the IC50 on Leucine aminopeptidase was 8.96 µM (active).
`O=C(Nc1cccc(C(F)(F)F)c1)c1cccn(Cc2ccc3c(c2)OC(F)(F)O3)c1=O`: the AC50 at Cytochrome P450 2C19 is 2.24 µM (inconclusive); at Cytochrome P450 3A4, 25.1 µM (inconclusive). In assay [1], the IC50 is on record as > 50 µM (not active).
For the compound `O=C(CSc1ccccn1)Nc1ccc(O)c(C(=O)O)c1`, the IC50 in [11] is recorded as > 100 µM (not active).
As to `O=C(O)CCN1C(=O)/C(=C/c2cn(-c3ccccc3)nc2-c2cccs2)SC1=S`, the figures for the IC50 (on Leucine aminopeptidase; in assay [12]; in assay [13]) were 3.05 µM (active), 3.24 µM (not active) and 50 µM (inactive), respectively.
